Test results: patent publication US20260078120A1, “SUBSTITUTED PYRIDOPYRIMIDINONES” (MIRATI THERAPEUTICS, INC., priority 2022, published 2026)

Legend:
[1] = tested on: T47D (PI3Kα H1047R mutant) cells; assay: CellTiter-Glo 2.0 luminescent cell viability assay, 72 hours, T47D cells; format: cell-based; conditions: Homo sapiens, T47D, 72 h, T47D (PI3Kα H1047R mutant) cells, CellTiter-Glo, approximately 72 hours; read-out: T47D (H1047R mutant) Viability IC50
How it was run: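 Cells seeded at 1000 per well overnight were dosed with a 10-concentration, 1:4 series starting at 10 µM and incubated ~72 h at 37° C. Viability was read by CellTiter-Glo 2.0 luminescence after 30 min at room temperature. IC50 came from four-parameter fits of percent vehicle control.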

[2] = tested on: SKBR3 (PI3Kα wild type) cells; assay: CellTiter-Glo 2.0 luminescent cell viability assay, 72 hours, SKBR3 cells; format: cell-based; conditions: Homo sapiens, SK-BR-3, 72 h, SKBR3 (PI3Kα wild type) cells, CellTiter-Glo, approximately 72 hours; read-out: SKBR3 (WT) Viability IC50
How it was run: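 Viability measured via CTG luminescence following roughly 72 hours of compound exposure at 37° C. Dosing used a 10 um starting concentration diluted 1:4 over 10 points; percent-of-vehicle data fitted with a variable-slope four-parameter model for IC50.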

SMILES	IC50 [1] [µM]	IC50 [2] [µM]
Cc1cc([C@@H](C)Nc2cccn(C)c2=O)c2nc(N3CCCCC3)c(C)c(=O)n2c1 [Example 11-278, (R)-3,7-dimethyl-9-(1-((1-methyl-2-oxo-1,2-dihydropyridin-3-yl)amino)ethyl)-2-(piperidin-1-yl)-4H-pyrido[1,2-a]pyrimidin-4-one]	8.35	> 10
Cc1cc([C@@H](C)Nc2ccc(Cl)nc2C(=O)O)c2nc(N3CCC(C)(C)CC3)c(C)c(=O)n2c1 [Example 11-279, (R)-6-chloro-3-((1-(2-(4,4-dimethylpiperidin-1-yl)-3,7-dimethyl-4-oxo-4H-pyrido[1,2-a]pyrimidin-9-yl)ethyl)amino)picolinic acid]	0.192	> 10
Cc1cc([C@@H](C)Nc2ccc(Cl)cc2C(=O)O)c2nc(N3Cc4ccccc4C3)c(C)c(=O)n2c1 [Example 11-280, (R)-5-chloro-2-((1-(2-(isoindolin-2-yl)-3,7-dimethyl-4-oxo-4H-pyrido[1,2-a]pyrimidin-9-yl)ethyl)amino)benzoic acid]	0.383	> 10
Cc1cc([C@@H](C)Nc2ccc(Cl)cc2C(=O)O)c2nc(N3CCCCC3)c(C)c(=O)n2c1 [Example 11-281, (R)-5-chloro-2-((1-(3,7-dimethyl-4-oxo-2-(piperidin-1-yl)-4H-pyrido[1,2-a]pyrimidin-9-yl)ethyl)amino)benzoic acid]	0.427	> 10
Cc1cc([C@@H](C)Nc2ccccc2C(=O)O)c2nc(NC34CC(CO)(C3)C4)c(C#N)c(=O)n2c1 [Example 11-282, (R)-2-((1-(3-cyano-2-((3-(hydroxymethyl)bicyclo[1.1.1]pentan-1-yl)amino)-7-methyl-4-oxo-4H-pyrido[1,2-a]pyrimidin-9-yl)ethyl)amino)benzoic acid]	1.65	> 10
Cc1cc([C@@H](C)Nc2ccccc2C(=O)O)c2nc(N3CCN(S(C)(=O)=O)CC3)c(C#N)c(=O)n2c1 [Example 11-283, (R)-2-((1-(3-cyano-7-methyl-2-(4-(methylsulfonyl)piperazin-1-yl)-4-oxo-4H-pyrido[1,2-a]pyrimidin-9-yl)ethyl)amino)benzoic acid]	7.17	> 10
Cc1cc([C@@H](C)Nc2ccccc2C(=O)O)c2nc(N3CCNC(=O)C3)c(C#N)c(=O)n2c1 [Example 11-284, (R)-2-((1-(3-cyano-7-methyl-4-oxo-2-(3-oxopiperazin-1-yl)-4H-pyrido[1,2-a]pyrimidin-9-yl)ethyl)amino)benzoic acid]	> 10	> 10
Cc1cc([C@@H](C)Nc2ccccc2C(=O)O)c2nc(N3CCC4(CCO4)C3)c(C#N)c(=O)n2c1 (stereo partly drawn) [Example 11-285, 2-(((1R)-1-(3-cyano-7-methyl-4-oxo-2-(1-oxa-6-azaspiro[3.4]octan-6-yl)-4H-pyrido[1,2-a]pyrimidin-9-yl)ethyl)amino)benzoic acid]	> 10	> 10
Cc1cc([C@@H](C)Nc2ccccc2C(=O)O)c2nc(N3Cc4ccncc4C3)c(C#N)c(=O)n2c1 [Example 11-286, (R)-2-((1-(3-cyano-2-(1,3-dihydro-2H-pyrrolo[3,4-c]pyridin-2-yl)-7-methyl-4-oxo-4H-pyrido[1,2-a]pyrimidin-9-yl)ethyl)amino)benzoic acid]	0.284	> 10
Cc1cc([C@@H](C)Nc2ccccc2C(=O)O)c2nc(N3Cc4ccccc4C3CO)c(C#N)c(=O)n2c1 (stereo partly drawn) [Example 11-288, 2-(((1R)-1-(3-cyano-2-(1-(hydroxymethyl)isoindolin-2-yl)-7-methyl-4-oxo-4H-pyrido[1,2-a]pyrimidin-9-yl)ethyl)amino)benzoic acid]	0.721	> 10
Cc1cc([C@@H](C)Nc2ccccc2C(=O)O)c2nc(N3CCC4(CCC(=O)N4)C3)c(C#N)c(=O)n2c1 (stereo partly drawn) [Example 11-289, 2-(((1R)-1-(3-cyano-7-methyl-4-oxo-2-(2-oxo-1,7-diazaspiro[4.4]nonan-7-yl)-4H-pyrido[1,2-a]pyrimidin-9-yl)ethyl)amino)benzoic acid]	1.87	> 10
Cc1c(N2Cc3ccccc3C2)nc2c([C@@H](C)Nc3ccccc3C(=O)O)cc(F)cn2c1=O [Example 11-290, (R)-2-((1-(7-fluoro-2-(isoindolin-2-yl)-3-methyl-4-oxo-4H-pyrido[1,2-a]pyrimidin-9-yl)ethyl)amino)benzoic acid]	0.392	> 10
Cc1c(N2Cc3ccccc3C2)nc2c([C@@H](C)Nc3ccccc3C(=O)O)cc(Cl)cn2c1=O [Example 11-291, (R)-2-((1-(7-chloro-2-(isoindolin-2-yl)-3-methyl-4-oxo-4H-pyrido[1,2-a]pyrimidin-9-yl)ethyl)amino)benzoic acid]	0.117	> 10
Cc1cc([C@@H](C)Nc2scnc2C(=O)O)c2nc(N3CCC(F)(F)CC3)c(C#N)c(=O)n2c1 [Example 11-292, (R)-5-((1-(3-cyano-2-(4,4-difluoropiperidin-1-yl)-7-methyl-4-oxo-4H-pyrido[1,2-a]pyrimidin-9-yl)ethyl)amino)thiazole-4-carboxylic acid]	3.95	> 10
Cc1cc([C@@H](C)Nc2ccc(F)cc2C(=O)O)c2nc(N3CCCCC3)c(C#N)c(=O)n2c1 [Example 11-293, (R)-2-((1-(3-cyano-7-methyl-4-oxo-2-(piperidin-1-yl)-4H-pyrido[1,2-a]pyrimidin-9-yl)ethyl)amino)-5-fluorobenzoic acid]	0.168	> 10
Cc1cc([C@@H](C)Nc2ccccc2C(=O)O)c2nc(N3C[C@H]4CC[C@@H]3C4)c(C#N)c(=O)n2c1 [Example 11-294, 2-(((R)-1-(2-((1R,4S)-2-azabicyclo[2.2.1]heptan-2-yl)-3-cyano-7-methyl-4-oxo-4H-pyrido[1,2-a]pyrimidin-9-yl)ethyl)amino)benzoic acid]	0.17	> 10
Cc1cc([C@@H](C)Nc2ccccc2C(=O)O)c2nc(N3CCN(C)CC3)c(C#N)c(=O)n2c1 [Example 11-295, (R)-2-((1-(3-cyano-7-methyl-2-(4-methylpiperazin-1-yl)-4-oxo-4H-pyrido[1,2-a]pyrimidin-9-yl)ethyl)amino)benzoic acid]	0.503	> 10
Cc1cc([C@@H](C)Nc2ccccc2C(=O)O)c2nc(N3CCNCC3)c(C#N)c(=O)n2c1 [Example 11-296, (R)-2-((1-(3-cyano-7-methyl-4-oxo-2-(piperazin-1-yl)-4H-pyrido[1,2-a]pyrimidin-9-yl)ethyl)amino)benzoic acid]	> 10	> 10
Cc1cc([C@@H](C)Nc2ccccc2C(=O)O)c2nc(N3CCCC(F)(F)C3)c(C#N)c(=O)n2c1 [Example 11-297, (R)-2-((1-(3-cyano-2-(3,3-difluoropiperidin-1-yl)-7-methyl-4-oxo-4H-pyrido[1,2-a]pyrimidin-9-yl)ethyl)amino)benzoic acid]	0.195	> 10
Cc1cc([C@@H](C)Nc2ccc(Cl)nc2C(=O)O)c2nc(N3CCC(F)(F)CC3)c(C)c(=O)n2c1 [Example 11-298, (R)-6-chloro-3-((1-(2-(4,4-difluoropiperidin-1-yl)-3,7-dimethyl-4-oxo-4H-pyrido[1,2-a]pyrimidin-9-yl)ethyl)amino)picolinic acid]	0.139	> 10
Cc1cc(C(C)Nc2ccccc2)c2nc(N3CCCCC3)c(C#N)c(=O)n2c1 (stereo not drawn) [Example 11-299, 7-methyl-4-oxo-9-(1-(phenylamino)ethyl)-2-(piperidin-1-yl)-4H-pyrido[1,2-a]pyrimidine-3-carbonitrile]	9.25	9.32
Cc1cc([C@H](C)Nc2ccccc2)c2nc(N3Cc4ccccc4C3)c(C#N)c(=O)n2c1 [Example 11-300, (S)-2-(isoindolin-2-yl)-7-methyl-4-oxo-9-(1-(phenylamino)ethyl)-4H-pyrido[1,2-a]pyrimidine-3-carbonitrile]	3.71	> 10
Cc1cc([C@@H](C)Nc2ccccc2)c2nc(N3Cc4ccccc4C3)c(C#N)c(=O)n2c1 [Example 11-301, (R)-2-(isoindolin-2-yl)-7-methyl-4-oxo-9-(1-(phenylamino)ethyl)-4H-pyrido[1,2-a]pyrimidine-3-carbonitrile]	9.15	8.83
Cc1cc(C(C)Nc2ccccc2)c2nc(N3Cc4ccccc4C3)c(C#N)c(=O)n2c1 (stereo not drawn) [Example 11-302, 2-(isoindolin-2-yl)-7-methyl-4-oxo-9-(1-(phenylamino)ethyl)-4H-pyrido[1,2-a]pyrimidine-3-carbonitrile]	1.44	8.97
Cc1cc([C@@H](C)Nc2ccccc2C(=O)O)c2nc(N3CCC(F)(F)CC3)c(C)c(=O)n2c1 [Example 11-303, (R)-2-((1-(2-(4,4-difluoropiperidin-1-yl)-3,7-dimethyl-4-oxo-4H-pyrido [1,2-a]pyrimidin-9-yl)ethyl)amino)benzoic acid]	0.114	> 10
Cc1cc([C@@H](C)Nc2ccccc2C(=O)O)c2nc(N3Cc4ncsc4C3)c(C)c(=O)n2c1 [Example 11-304, (R)-2-((1-(2-(4,6-dihydro-5H-pyrrolo[3,4-d]thiazol-5-yl)-3,7-dimethyl-4-oxo-4H-pyrido[1,2-a]pyrimidin-9-yl)ethyl)amino)benzoic acid]	0.197	> 10
Cc1cc([C@@H](C)Nc2ccccc2C(=O)O)c2nc(N3CCc4sc(C)nc4C3)c(C#N)c(=O)n2c1 [Example 11-305, (R)-2-((1-(3-cyano-7-methyl-2-(2-methyl-6,7-dihydrothiazolo[4,5-c]pyridin-5(4H)-yl)-4-oxo-4H-pyrido[1,2-a]pyrimidin-9-yl)ethyl)amino)benzoic acid]	0.501	> 10
